# Measured values taken from patent publication US5489693A, “Cyclic imino derivatives, pharmaceutical compositions containing these compounds and processes preparing them” (priority 1992, dated 1996).
# Structures can show the parent of a compound that is named as a salt.
# Tests used:
# human thrombocytes = assay: Inhibition of binding of ^3 H-BIBU 52 to human thrombocytes (Fibrinogen-binding test); settings: ^3 H-BIBU 52 5 nM, human platelet-rich plasma 1:10 diluted, ambient temperature, 20 minutes
# Procedure: 1. Inhibition of binding of ^3 H-BIBU 52 to human thrombocytes: […] Case 5/1093-FL) and various concentrations of the substance to be tested. The free and bound ligand is separated by centrifuging and quantitatively determined by scintillation counting. The inhibition of ^3 H-BIBU 52 binding by the test substance is determined from the measurements obtained. In order to do this, donor blood is taken from an anticubital vein and anticoagulated with trisodium citrate (final concentration 13 mM). The blood is centrifuged for 10 minutes at 170 x g and the supernatant platelet-rich plasma (PRP) is removed. The remaining blood is sharply centrifuged once more in order to obtain plasma. The PRP is diluted 1:10 with autologous plasma. 750 μl are incubated with 50 μl of physiological saline solution, 100 μl of test substance solution, 50 μl of ^14 C-sucrose (3,700 Bq) and 50 μl of ^3 H-BIBU 52 (final concentration: 5 nM) at ambient temperature for 20 minutes. In order to measure the non-specific binding, 5 μl of BIBU 52 (final concentration: 30 μM) are used instead of the test substance. The samples are centrifuged for 20 seconds at 10,000 x g and the supernatant is poured off. 100 μl thereof are measured in order to determine the free ligand. The pellet is dissolved in 500 μl of 0.2N NaOH, 450 μl are mixed with 2 ml of scintillator and 25 μl of 5N HCl and measured. The residual plasma remaining in the pellet is determined from the ^14 C-content and the bound ligand is determined from the ^3 H-measurement. After the non-specific binding has been deducted, the pellet activity is plotted against the concentration of the test substance and the concentration for a 50% inhibition of binding is determined.
# platelet aggregation = assay: Antithrombotic activity: inhibition of collagen-induced platelet aggregation (Born and Cross method); format: cell-based; settings: Homo sapiens, 10 min, platelet-rich plasma from healthy volunteers, 10 minutes incubation at 37° C.
# Procedure: 2. Antithrombotic activity Method The thrombocyte aggregation is measured using the Born and Cross method (J. Physiol. 170:397 (1964)) in platelet-rich plasma taken from healthy volunteers. To inhibit coagulation the blood is mixed with 3.14% sodium citrate in a volume ratio of 1:10. Collagen-induced aggregation The pattern of the decrease in optical density of the platelet suspension is photometrically measured and recorded after the addition of the aggregation-triggering substance. The rate of aggregation is determined from the angle of inclination of the density curve. The point on the curve where there is maximum light transmittance is used to calculate the optical density. The amount of collagen used is as small as possible but sufficient to produce an irreversible reaction curve. Standard commercial collagen produced by Hormonchemie of Munich is used. Before the addition of the collagen the plasma is incubated for 10 minutes with the substance at 37° C. From the measurements obtained an EC50 is determined graphically, indicating a 50% change in the optical density in terms of the inhibition of aggregation. The Table which follows contains the results found: […]
# mice = assay: Tolerability after intravenous administration to mice; format: in vivo; settings: intravenous administration of 15 mg/kg, 3 animals
IC50 (human thrombocytes) [nM],Compound,EC50 (platelet aggregation) [nM],deaths (mice)
42,"N=C(N)c1ccc(N2CC(N3CCOCC3)=C(c3ccc(CCC(=O)O)cc3)C2=O)cc1 [2(3), 1-(4-amidinophenyl)-3-[4-(2-carboxy-ethyl)-phenyl]-4-morpholino-3-pyrrolin-2-one-hydrochloride]",730,
110,"N=C(N)c1ccc(N2CCC(c3ccc(CCC(=O)O)cc3)C2=O)cc1 (stereo not shown) [2(13), 1-(4-amidinophenyl)-3-[4-(2-carboxy-ethyl)-phenyl]-pyrrolidin-2-one-hydrochloride]",260,
180,"COC1=C(c2ccc(CCC(=O)O)cc2)C(=O)N(c2ccc(CN)cc2)C1 [2(55), 1-(4-aminomethyl-phenyl)-3-[4-(2-carboxy-ethyl)phenyl]-4-methoxy-3-pyrrolin-2-one-hydrochloride]",330,
8600,"COC(=O)CCc1ccc(C2=C(OC)CN(c3ccc(CN)cc3)C2=O)cc1 [5(B), 1-(4-Aminomethyl-phenyl)-4-methoxy-3-[4-(2-methoxycarbonyl-ethyl)-phenyl]-3-pyrrolin-2-one]",380,
360,"CC1(c2ccc(CCC(=O)O)cc2)C(=O)CN(c2ccc(C(=N)N)cc2)C1=O (stereo not shown) [Example 13, 1-(4-Amidinophenyl)-3-[4-(2-carboxy-ethyl)-phenyl]-3-methyl-pyrrolidin-2,4-dione-hydrochloride]",500,

Compound,IC50 (human thrombocytes) [nM],EC50 (platelet aggregation) [nM],deaths (mice)
"COC1=C(c2ccc(CCC(=O)O)cc2)C(=O)N(c2ccc(C(=N)N)cc2)C1 [Example 2, -(4-Amidinophenyl)-3-[4-(2-carboxyethyl)-phenyl]-4-methoxy-3-pyrrolin-2one-hydrochloride]",11,40,none of the 3 animals tested died
